Test results from patent publication US12128034B2, “Combinations of beta-lactam compounds, probenecid, and valproic acid and uses thereof” (Iterum Therapeutics International Limited, priority 2020, dated 2024).

Experiments:
[1] = in vivo
clinical = conditions: in vivo; for AUC(0-t): AUC0-t; for AUC: AUC0-tau
Experimental: For Cohorts 2 and 3, all patients were administered valproic acid daily. Starting on the fifth day, Cohort 3 was administered the sulopenem etzadroxil tablet (“Etzadroxil Tablet”) alone and Cohort 2 was administered the bilayer tablet of sulopenem etzadroxil and probenecid (500 mg sulopenem etzadroxil+500 mg probenecid film-coated bilayer tablet; “Bilayer Tablet”).

[2] = may result in loss of seizure control; cited from earlier work
[3] = Dacey and Sande 1974; cited from earlier work
Porphyromonas gingivalis = conditions: Ednie and Appelbaum 2009; cited from earlier work

SMILES: CCCC(CCC)C(=O)O [VPA, valproic acid]
- tolerability and safety [1]: well tolerated and safe
- tlast, Mean (SD) (clinical; male, human): 11.920 (0.0000) h
- AUC0-t, Mean (SD) (clinical; male, human, po): 570.83 (122.096) h · μg/mL
- AUC0-tau, Mean (SD) (clinical; male, human, po): 554.71 (140.804) h · μg/mL
- Tmax (clinical; male, human, po): 4 h
- tmax, Median (min, max) (clinical; male, human, po): 4.000 (2.00, 5.00) h
- AUC(0-t) (clinical; male, human, po, GM (CV %)): 517 µg·h/mL
- AUC(0-t) (clinical; male, human, po, Mean (SD)): 522 µg·h/mL
- AUC (clinical; male, human, po, GM (CV %)): 518 µg·h/mL
- AUC (clinical; male, human, po, Mean (SD)): 522 µg·h/mL

SMILES: C[C@@H](O)[C@H]1C(=O)N2C(C(=O)O)=C(S[C@@H]3CN[C@H](C(=O)Nc4cccc(C(=O)O)c4)C3)[C@H](C)[C@H]12 [ertapenem]
- serum valproic acid concentration in patients receiving carbapenem antibiotics [2]: clinically significant reduction

SMILES: C[C@@H](O)[C@H]1C(=O)N2C(C(=O)O)=C(SCCN=CN)C[C@H]12 [imipenem]
- serum valproic acid concentration in patients receiving carbapenem antibiotics [2]: clinically significant reduction

SMILES: C[C@@H](O)[C@H]1C(=O)N2C(C(=O)O)=C(S[C@@H]3CN[C@H](C(=O)N(C)C)C3)[C@H](C)[C@H]12 [meropenem]
- serum valproic acid concentration in patients receiving carbapenem antibiotics [2]: clinically significant reduction

SMILES: CCCN(CCC)S(=O)(=O)c1ccc(C(=O)O)cc1 [probenecid]
- concentrations of β-lactam compounds in the cerebrospinal fluid [3]: increase
- time at which the impact of probenecid on valproic acid bioavailability can occur (clinical; human): as early as three days

SMILES: C[C@@H](O)[C@H]1C(=O)N2C(C(=O)O)=C(S[C@H]3CC[S@@+]([O-])C3)S[C@H]12 [sulopenem]
- tolerability and safety [1]: well tolerated and safe
- activity against Porphyromonas gingivalis (Porphyromonas gingivalis): active
- effect on the steady-state pharmacokinetic profile of valproic acid (clinical): weak effect
